# From PubChem BioAssay (NCI)
# “And” between values parts separate entries of the source, which are not always exact repeats. Identical values can stand only once.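 Briefly, cells in 96-well plates were exposed to five compound concentrations for 48 h, and endpoints were estimated by linear interpolation. Here, GI50 denotes the concentration required for 50% inhibition of growth. TGI: concentration producing complete growth inhibition.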
# Legend:
# Experiment in all cases: NCI tumour cell line growth inhibition, 48 h
# NCI-H226 lung = system: NCI-H226 lung
# HOP-62 NSCLC = system: HOP-62 NSCLC
# MDA-MB-231 breast = system: MDA-MB-231 breast
# IGROV1 ovarian = system: IGROV1 ovarian
# A549 NSCLC = system: A549 NSCLC
# T-47D breast = system: T-47D breast
# SK-MEL-2 melanoma = system: SK-MEL-2 melanoma
# PC-3 prostate = system: PC-3 prostate
# 786-0 renal = system: 786-0 renal
# OVCAR-5 ovarian = system: OVCAR-5 ovarian
Compound,GI50 (NCI-H226 lung),TGI (NCI-H226 lung),GI50 (HOP-62 NSCLC),TGI (HOP-62 NSCLC),GI50 (MDA-MB-231 breast),TGI (MDA-MB-231 breast),GI50 (IGROV1 ovarian),TGI (IGROV1 ovarian),GI50 (A549 NSCLC),TGI (A549 NSCLC),GI50 (T-47D breast),TGI (T-47D breast),GI50 (SK-MEL-2 melanoma),TGI (SK-MEL-2 melanoma),GI50 (PC-3 prostate),TGI (PC-3 prostate),GI50 (786-0 renal),TGI (786-0 renal),GI50 (OVCAR-5 ovarian),TGI (OVCAR-5 ovarian)
Cc1c(NC(=O)OC[C@@H]2COCCN2)cn2ncnc(Nc3ccc4c(cnn4Cc4cccc(F)c4)c3)c12,> 10 µM and 11.3 µM,> 10 µM and 35.6 µM,> 10 µM and 11.5 µM,> 10 µM and 24.9 µM,4.89 µM and 2.99 µM,> 10 µM and 13.4 µM,0.855 µM and 2.16 µM,> 10 µM and 19.9 µM,> 10 µM and 8.26 µM,> 10 µM and 21.5 µM,1.36 µM and 1.14 µM,9.52 µM and 10.3 µM,> 10 µM and 12.9 µM,> 10 µM and 29.4 µM,> 10 µM and 10.2 µM,> 10 µM and 31.8 µM,8.46 µM and 6.1 µM,> 10 µM and 24.1 µM,> 10 µM and 8.82 µM,> 10 µM and 21.4 µM
COc1cccc2[nH]c(-c3ccccn3)nc12,,> 100 µM,,> 100 µM,,> 100 µM,,> 100 µM,,> 100 µM,,> 100 µM,,> 100 µM,,> 100 µM,,> 100 µM,,> 100 µM
C=C1C(=O)O[C@H]2[C@H]1CC/C(COC(=O)c1ccc(C#N)cc1)=C\CC[C@@]1(C)O[C@@H]21,2.26 µM,7.6 µM,7.43 µM,22.6 µM,2.2 µM,5.24 µM,1.38 µM,4.27 µM,6 µM,20.5 µM,1.74 µM,5.24 µM,1.98 µM,4.54 µM,3.97 µM,15.6 µM,1.92 µM,3.99 µM,3.06 µM,9.51 µM
COc1ccccc1S(=O)(=O)Nc1ccc2c(c1)CN(C)C(=O)N2,9.98 µM and 16 µM,> 100 µM,4.93 µM and 4.22 µM,> 100 µM,4.28 µM and 7.34 µM,> 100 µM,6.42 µM and 5.7 µM,> 100 µM,9.07 µM and 22.2 µM,> 100 µM,3.27 µM,> 100 µM,6.48 µM and 29.5 µM,> 100 µM,10.7 µM and 16.3 µM,> 100 µM,7.79 µM and 8.82 µM,> 100 µM,9.5 µM and 11.7 µM,> 100 µM
O=[N+]([O-])c1ccc(Sc2c3ccccc3nc3ccccc23)nc1,,35.8 µM,,47.3 µM,,15.4 µM,,30.6 µM,,43.7 µM,,6.52 µM,,38.8 µM,,28.9 µM,,4.25 µM,,33.2 µM
CN(C[C@@H]1COCCO1)S(=O)(=O)Nc1ccc2ccc3ncc(-c4cnn(C)c4)cc3c(=O)c2c1,2.62 µM,> 100 µM,10.9 µM,> 100 µM,7.76 µM,> 100 µM,2.5 µM,> 100 µM,6.64 µM,> 100 µM,5.54 µM,> 100 µM,3.12 µM,> 29.4 µM,5.67 µM,> 100 µM,6.04 µM,> 100 µM,> 81.2 µM,> 100 µM
C=C(C)[C@@H]1CC[C@]2(COC3CCCCO3)CC[C@]3(C)[C@H](CC[C@@H]4[C@@]5(C)C=C(C=O)C(=O)C(C)(C)[C@@H]5CC[C@]43C)[C@@H]12 (some centres undefined),1.95 µM,4.43 µM,1.75 µM,3.19 µM,1.81 µM,3.82 µM,2.13 µM,4.56 µM,1.56 µM,3.15 µM,1.33 µM,3.01 µM,1.56 µM,3.26 µM,1.1 µM,2.71 µM,1.65 µM,3.09 µM,1.79 µM,4.21 µM
Nc1c(C(=O)Nc2ccccc2F)sc2nc3c(cc12)C(=O)CCC3,10.5 µM,> 100 µM,4.12 µM,> 100 µM,7.53 µM,> 100 µM,2.92 µM,> 100 µM,0.898 µM,> 100 µM,6.79 µM,> 100 µM,0.683 µM,> 100 µM,0.959 µM,> 100 µM,13.6 µM,> 100 µM,4.05 µM,> 100 µM
CSc1ccc(/C=C/c2ccnc3ccccc23)cc1,,29 µM,,34.8 µM,,30.8 µM,,39.4 µM,,25 µM,,41.7 µM,,30.1 µM,,19.2 µM,,27.9 µM,,35 µM
Cn1c(=S)c2[nH]c(SCCN3CCCC3)nc2n(C)c1=O,,> 100 µM,,> 100 µM,,> 100 µM,,> 100 µM,,> 100 µM,,> 100 µM,,> 100 µM,,> 100 µM,,> 100 µM,,> 100 µM
CCN1C(=O)N(c2ccccc2)C2NN=c3s/c(=C4\C(=O)N(C(C)C)c5ccccc54)c(=O)n3C21 (centres undefined),3.7 µM,31.4 µM,0.689 µM,18.9 µM,2.51 µM,11.6 µM,1.55 µM,> 100 µM,1.43 µM,> 40.5 µM,0.716 µM,> 100 µM,5.99 µM,> 100 µM,1.45 µM,> 77.3 µM,1.95 µM,8.64 µM,3.38 µM,> 100 µM
Cc1ccc(S(=O)(=O)Cc2nc(-c3ccc(C(=O)NCc4cccnc4)cc3)oc2C)cc1,> 100 µM,> 100 µM,15.4 µM,> 88.8 µM,5.78 µM,> 100 µM,0.189 µM,> 100 µM,> 21.5 µM,> 100 µM,0.287 µM,> 100 µM,5.45 µM,> 86.3 µM,0.224 µM,> 100 µM,20 µM,> 100 µM,,> 100 µM
COc1ccc(Cn2cc3c(c2-c2cc(OC)c(OC)c(OC)c2)CCc2cnoc2-3)cc1[N+](=O)[O-],4.33 µM,> 100 µM,2.85 µM,> 100 µM,2.13 µM,> 41.2 µM,0.82 µM,51.5 µM,1 µM,> 100 µM,3.58 µM,> 100 µM,0.366 µM,10.3 µM,1.39 µM,> 100 µM,6.74 µM,> 43.5 µM,5.08 µM,> 100 µM
CN(CCCl)c1ccc(/C=C/C2=[N+](C)c3ccccc3C2(C)C)cc1,1.21 µM,14.9 µM,1.07 µM,10.9 µM,0.579 µM,5.59 µM,1.73 µM,18.6 µM,0.9 µM,12.5 µM,0.706 µM,10.2 µM,1.33 µM,5.62 µM,0.243 µM,10.6 µM,3.9 µM,15.9 µM,3.71 µM,17.1 µM
